Common to all, as to type: cell-based
Common to all, as to settings: fluorescent calcium assay

The target of assay [1] is TRPML1 (Homo sapiens, UniProt Q9GZU1). The experiment in a line: Fluorescent TRPML1 assay (Fluo4-AM calcium fluorescence in doxycycline-induced HEK-293 Trex cells). In a few lines: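 First, expression of surface-targeted mutant human TRPML1 is induced in HEK-293 Trex cells with 0.5 ug/mL doxycycline the day before. Next, cells take up 1 micromolar Fluo4-AM in Ringer's with 0.1% Pluronic. Finally, they are added to compounds (6 nanomolar–20 micromolar final) in 10 mM calcium Ringer's and fluorescence is read.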
Sequence of TRPML1 (Q9GZU1 whole entry L15A/L16A/L577A/L578A, form open): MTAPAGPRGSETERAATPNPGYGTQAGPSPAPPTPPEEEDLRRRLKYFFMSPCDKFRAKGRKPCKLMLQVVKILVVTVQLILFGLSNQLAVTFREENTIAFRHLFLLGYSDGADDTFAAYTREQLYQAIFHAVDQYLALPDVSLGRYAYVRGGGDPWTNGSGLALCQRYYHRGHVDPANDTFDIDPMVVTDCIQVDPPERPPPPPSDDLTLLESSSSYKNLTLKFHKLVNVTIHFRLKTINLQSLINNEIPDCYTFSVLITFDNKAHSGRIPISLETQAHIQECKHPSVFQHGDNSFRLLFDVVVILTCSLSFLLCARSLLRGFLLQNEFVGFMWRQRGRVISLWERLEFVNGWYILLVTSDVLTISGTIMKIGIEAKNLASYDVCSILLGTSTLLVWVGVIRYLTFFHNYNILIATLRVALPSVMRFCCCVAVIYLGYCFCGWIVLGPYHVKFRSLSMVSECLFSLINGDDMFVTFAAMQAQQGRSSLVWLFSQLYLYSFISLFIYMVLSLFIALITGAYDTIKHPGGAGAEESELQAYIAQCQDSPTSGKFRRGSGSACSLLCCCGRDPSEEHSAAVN

Assay [2] concerns the target T1, TRPML2 (Homo sapiens, UniProt Q8IZK6).
T1 construct: expressed in transfected cells
T1 sequence (Q8IZK6 1-566): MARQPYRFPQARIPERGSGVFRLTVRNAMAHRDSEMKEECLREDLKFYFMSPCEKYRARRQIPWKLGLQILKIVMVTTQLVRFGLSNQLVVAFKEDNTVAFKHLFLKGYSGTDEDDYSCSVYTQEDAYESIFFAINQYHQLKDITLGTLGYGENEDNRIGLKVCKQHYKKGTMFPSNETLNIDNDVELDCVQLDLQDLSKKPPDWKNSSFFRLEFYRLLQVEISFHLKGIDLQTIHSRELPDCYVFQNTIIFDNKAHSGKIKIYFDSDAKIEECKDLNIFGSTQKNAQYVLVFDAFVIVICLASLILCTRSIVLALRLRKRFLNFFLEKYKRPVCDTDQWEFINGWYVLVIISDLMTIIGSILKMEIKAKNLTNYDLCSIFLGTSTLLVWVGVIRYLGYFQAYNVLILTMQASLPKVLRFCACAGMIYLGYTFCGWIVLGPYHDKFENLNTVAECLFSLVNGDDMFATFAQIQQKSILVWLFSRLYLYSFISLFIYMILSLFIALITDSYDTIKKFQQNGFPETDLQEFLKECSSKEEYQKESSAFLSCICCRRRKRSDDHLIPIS
The experiment in a line: Fluorescent TRPML2 assay (performed as for TRPML1, substituting the TRPML2 subtype). In a few lines: (§1)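 Compound series (final 6 nM-20 μM, half-log, triplicate) were added to Fluo4-AM-loaded HEK-293 Trex cells in 10 mM calcium Ringer's, expressing the human TRPML subtype after doxycycline 0.5 ug/mL induction. Percent activity versus positive/negative controls from 480/540 nm fluorescence; EC50 by non-linear regression.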

Assay [3] addresses T2, TRPML3 (Homo sapiens, UniProt Q8TDD5).
T2 construct: expressed in transfected cells
T2 sequence (Q8TDD5 1-553): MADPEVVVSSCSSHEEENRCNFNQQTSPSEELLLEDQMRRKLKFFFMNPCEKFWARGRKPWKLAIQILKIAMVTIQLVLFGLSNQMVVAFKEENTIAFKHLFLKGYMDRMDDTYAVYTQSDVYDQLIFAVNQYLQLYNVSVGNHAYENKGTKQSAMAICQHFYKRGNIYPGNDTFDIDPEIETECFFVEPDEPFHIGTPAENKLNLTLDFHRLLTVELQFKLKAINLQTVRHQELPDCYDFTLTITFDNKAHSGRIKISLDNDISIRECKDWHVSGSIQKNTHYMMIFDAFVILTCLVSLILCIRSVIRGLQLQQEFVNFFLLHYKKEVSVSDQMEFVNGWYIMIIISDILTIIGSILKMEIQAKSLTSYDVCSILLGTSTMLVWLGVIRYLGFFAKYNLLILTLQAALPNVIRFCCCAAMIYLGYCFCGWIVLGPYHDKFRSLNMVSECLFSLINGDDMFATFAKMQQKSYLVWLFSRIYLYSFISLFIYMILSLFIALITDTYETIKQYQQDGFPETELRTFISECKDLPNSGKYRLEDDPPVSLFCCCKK
The experiment in a line: Fluorescent TRPML3 assay (performed as for TRPML1, substituting the TRPML3 subtype). In short, it runs like this: as §1

Take `C[C@H]1CN(C(=O)OC(C)(C)C)CCN1c1ncnc2c1c(N1CCCC1)cn2-c1cccc(OC(F)(F)F)c1` [Compound 331, tert-butyl (S)-3-methyl-4-(5-(pyrrolidin-1-yl)-7-(3-(trifluoromethoxy)phenyl)-7H-pyrrolo[2,3-d]pyrimidin-4-yl)piperazine-1-carboxylate]: the EC50 in assay [1], in assay [2] and in assay [3] was less than 100 nM throughout.

In the case of `C[C@@H]1CN(c2ncnc3c2c(-n2cccn2)cn3-c2cccc(Cl)c2)CCN1C(=O)OC(C)(C)C` [Compound 332, tert-butyl (R)-4-(7-(3-chlorophenyl)-5-(1H-pyrazol-1-yl)-7H-pyrrolo[2,3-d]pyrimidin-4-yl)-2-methylpiperazine-1-carboxylate], the EC50 – broadly, the concentration at which the effect is half-maximal – in assay [1] is less than 100 nM; in assay [2], 500 to 2000 nM; in assay [3] it was less than 100 nM.

For the molecule `C[C@H]1CN(C(=O)OC(C)(C)C)CCN1c1ncnc2c1c(C1CCC1)cn2-c1cc(C#N)ccn1` [Compound 333], the 50% effective concentration (EC50) in assay [1], in assay [2] and in assay [3] was less than 100 nM in each case.

As for `C[C@H]1CN(C(=O)OC(C)(C)C)CCN1c1ncnc2c1c(N1CCCC1)cn2C1CCCCC1` [Compound 334, tert-butyl (S)-4-(7-cyclohexyl-5-(pyrrolidin-1-yl)-7H-pyrrolo[2,3-d]pyrimidin-4-yl)-3-methylpiperazine-1-carboxylate], the 50% effective concentration (EC50) is less than 100 nM in assay [1], 100 to 500 nM in assay [2] and less than 100 nM in assay [3].

For the molecule `C[C@H]1CN(C(=O)OC(C)(C)C(F)(F)F)CCN1c1ncnc2c1c(-c1cncnc1)cn2-c1cc(C#N)ccn1` [Compound 335], the EC50 was less than 100 nM in assay [1], 500 to 2000 nM in assay [2] and less than 100 nM in assay [3].

Consider `C[C@H]1CN(C(=O)OC(C)(C)C(F)(F)F)CCN1c1ncnc2c1c(-c1cncnc1)cn2-c1cccc(C#N)c1` [Compound 336, 1,1,1-trifluoro-2-methylpropan-2-yl (S)-4-(7-(3-cyanophenyl)-5-(pyrimidin-5-yl)-7H-pyrrolo[2,3-d]pyrimidin-4-yl)-3-methylpiperazine-1-carboxylate], for which the figures for the EC50 in assay [1], in assay [2] and in assay [3] were 100 to 500 nM, greater than 2000 nM and less than 100 nM, respectively.

As to `C[C@H]1CN(C(=O)OC(C)(C)C)CCN1c1ncnc2c1c(CN1CCCC1)cn2-c1cccc(Cl)c1` [Compound 337, tert-butyl-(S)-4-(7-(3-chlorophenyl)-5-(pyrrolidin-1-ylmethyl)-7H-pyrrolo[2,3-d]pyrimidin-4-yl)-3-methylpiperazine-1-carboxylate], the EC50 in assay [1] was 500 to 2000 nM; in assay [2] it was greater than 2000 nM; in assay [3] it was 100 to 500 nM.

On to `C[C@H]1CN(C(=O)OC(C)(C)C)CCN1c1ncnc2c1c(N1CCCC1)cn2C1CCCC1` [Compound 338, tert-butyl (S)-4-(7-cyclopentyl-5-(pyrrolidin-1-yl)-7H-pyrrolo[2,3-d]pyrimidin-4-yl)-3-methylpiperazine-1-carboxylate], for which the results for the EC50 in assay [1], in assay [2] and in assay [3] were 100 to 500 nM, greater than 2000 nM and 500 to 2000 nM, respectively.

Regarding `C[C@H]1CN(C(=O)OC(C)(C)C)CCN1c1ncnc2c1c(C1CC1)cn2C1CCCC1` [Compound 339, tert-butyl (S)-4-(7-cyclopentyl-5-cyclopropyl-7H-pyrrolo[2,3-d]pyrimidin-4-yl)-3-methylpiperazine-1-carboxylate], the EC50 in assay [1] is 100 to 500 nM; in assay [2], greater than 2000 nM; in assay [3] it was 100 to 500 nM.

On to `C[C@H]1CN(C(=O)OC(C)(C)C)CCN1c1ncnc2c1c(C1CC1)cn2C1CCOCC1` [Compound 340, tert-butyl (S)-4-(5-cyclopropyl-7-(tetrahydro-2H-pyran-4-yl)-7H-pyrrolo[2,3-d]pyrimidin-4-yl)-3-methylpiperazine-1-carboxylate], for which the EC50 in assay [1] is 500 to 2000 nM; in assay [2], greater than 2000 nM; in assay [3], 100 to 500 nM.

`C[C@@H]1CN(c2ncnc3c2c(N2CCC2)cn3-c2cccc(C#N)c2)CCN1C(=O)OC(C)(C)C` [Compound 341, tert-butyl (R)-4-(5-(azetidin-1-yl)-7-(3-cyanophenyl)-7H-pyrrolo[2,3-d]pyrimidin-4-yl)-2-methylpiperazine-1-carboxylate]: the 50% effective concentration (EC50) in assay [1], in assay [2] and in assay [3] was less than 100 nM throughout.

Regarding `C[C@@H]1CN(c2ncnc3c2c(-n2ccnc2)cn3-c2cccc(Cl)c2)CCN1C(=O)OC(C)(C)C` [Compound 342, tert-butyl (R)-4-(7-(3-chlorophenyl)-5-(1H-imidazol-1-yl)-7H-pyrrolo[2,3-d]pyrimidin-4-yl)-2-methylpiperazine-1-carboxylate], the concentration for a half-maximal effect (EC50) is less than 100 nM in assay [1], 500 to 2000 nM in assay [2] and 100 to 500 nM in assay [3].

Consider `C[C@H]1CN(C(=O)OC(C)(C)C)CCN1c1ncnc2c1c(C1CC1)nn2-c1cc(C#N)ccn1` [Compound 343], for which the EC50 in assay [1] was 500 to 2000 nM; in assay [2], greater than 2000 nM; in assay [3] it was 100 to 500 nM.

Regarding `C[C@H]1CN(C(=O)OC(C)(C)C)CCN1c1ncnc2c1c(N1CCOCC1)cn2C1CCCCC1` [Compound 344, tert-butyl (S)-4-(7-cyclohexyl-5-morpholino-7H-pyrrolo[2,3-d]pyrimidin-4-yl)-3-methylpiperazine-1-carboxylate], the EC50 was 100 to 500 nM in assay [1], greater than 2000 nM in assay [2] and 100 to 500 nM in assay [3].

Consider `C[C@H]1CN(C(=O)OC(C)(C)C)CCN1c1ncnc2c1c(C1CC1)cn2C1CCCOC1` (stereo partly drawn) [Compound 345, tert-butyl (3S)-4-(5-cyclopropyl-7-(tetrahydro-2H-pyran-3-yl)-7H-pyrrolo[2,3-d]pyrimidin-4-yl)-3-methylpiperazine-1-carboxylate], for which the EC50 in assay [1] is 500 to 2000 nM; in assay [2], greater than 2000 nM; in assay [3], 500 to 2000 nM.

For the molecule `CCOC(=O)N1CCN(c2ncnc3c2c(-c2ccccc2F)cn3-c2cc(C#N)ccn2)[C@@H](C)C1` [Compound 346, ethyl (S)-4-(7-(4-cyanopyridin-2-yl)-5-(2-fluorophenyl)-7H-pyrrolo[2,3-d]pyrimidin-4-yl)-3-methylpiperazine-1-carboxylate], the EC50 in assay [1], in assay [2] and in assay [3] was less than 100 nM throughout.

Turning to `CC(C)OC(=O)N1CCN(c2ncnc3c2c(-c2ccccc2F)cn3-c2cc(C#N)ccn2)[C@@H](C)C1` [Compound 347, isopropyl (S)-4-(7-(4-cyanopyridin-2-yl)-5-(2-fluorophenyl)-7H-pyrrolo[2,3-d]pyrimidin-4-yl)-3-methylpiperazine-1-carboxylate], the EC50 in assay [1], in assay [2] and in assay [3] was less than 100 nM each time.

Regarding `CC(OC(=O)N1CCN(c2ncnc3c2c(-c2ccccc2F)cn3-c2cc(C#N)ccn2)[C@@H](C)C1)C(F)(F)F` (stereo partly drawn) [Compound 348, 1,1,1-trifluoropropan-2-yl (3S)-4-(7-(4-cyanopyridin-2-yl)-5-(2-fluorophenyl)-7H-pyrrolo[2,3-d]pyrimidin-4-yl)-3-methylpiperazine-1-carboxylate], the half-maximal effective concentration (EC50) in assay [1], in assay [2] and in assay [3] was less than 100 nM in each case.

`C[C@H]1CN(C(=O)OCC(F)(F)F)CCN1c1ncnc2c1c(-c1ccccc1F)cn2-c1cc(C#N)ccn1` [Compound 349, 2,2,2-trifluoroethyl (S)-4-(7-(4-cyanopyridin-2-yl)-5-(2-fluorophenyl)-7H-pyrrolo[2,3-d]pyrimidin-4-yl)-3-methylpiperazine-1-carboxylate]: the concentration giving a half-maximal response (EC50) in assay [1], in assay [2] and in assay [3] was less than 100 nM each time.

In the case of `C[C@H]1CN(C(=O)OC(C)(C)C)CCN1c1ncnc2c1c(N1CCC1)cn2-c1cccc(C#N)c1` [Compound 350, tert-butyl (S)-4-(5-(azetidin-1-yl)-7-(3-cyanophenyl)-7H-pyrrolo[2,3-d]pyrimidin-4-yl)-3-methylpiperazine-1-carboxylate], the EC50 in assay [1], in assay [2] and in assay [3] was less than 100 nM in each case.

Values taken from patent US20250136606A1, “MODULATORS OF TRPML, THEIR COMPOSITIONS AND METHODS OF USE” (Caraway Therapeutics, Inc., priority 2021, published 2025).
